Data reported in patent publication US20070172470A1, “Phosphatase regulation of nucleic acid transcription” (The Regents of the University of California, priority 2003, published 2007).
Read-outs that look alike come from different tables or passages of the source.

Molecular target: SCP1 (Homo sapiens, UniProt Q9GZU7)
Assay: PNθP phosphatase assay in the presence of phosphatase inhibitors
Format: biochemical

SCP1, sequence (Q9GZU7 other isoform, or with tags, fused parts or gaps): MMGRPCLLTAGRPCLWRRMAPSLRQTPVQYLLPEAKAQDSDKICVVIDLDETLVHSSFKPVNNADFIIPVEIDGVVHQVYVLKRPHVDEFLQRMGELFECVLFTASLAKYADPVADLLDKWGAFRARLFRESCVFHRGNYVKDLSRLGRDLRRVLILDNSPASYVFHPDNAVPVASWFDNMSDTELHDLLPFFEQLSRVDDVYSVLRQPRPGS

| Molecule | SCP1 phosphatase activity in the presence of phosphatase inhibitor (GST-SCP1 214 (40 pmol), 20 mM PNθP, 1-10 μM inhibitor) | SCP1 phosphatase activity in the presence of phosphatase inhibitor |
| --- | --- | --- |
| C=C1[C@@H](O)[C@@H]2O[C@]3(CC[C@H](/C=C/[C@@H](C)[C@@H]4CC(C)=C[C@@]5(O[C@H](C[C@@](C)(O)C(=O)O)CC[C@H]5O)O4)O3)CC[C@H]2O[C@@H]1[C@@H](O)C[C@H](C)[C@H]1O[C@@]2(CCCCO2)CC[C@H]1C [okadaic acid] | resistant |  |
| microcystin |  | resistant |
